These results are taken from ChEMBL document CHEMBL1201862, “PubChem BioAssay data set” (2004).

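Method: 48-hour compound exposure of cells in 96-well plates, five concentrations, linear interpolation of endpoints. The concentration for 50% growth inhibition is given as GI50.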 The source made the active and inactive calls. Rule as the data show it: active = GI50 up to about 1.1 µM and inactive = higher.

What all share (test): NCI tumour cell line growth inhibition, 48 h
Assay [1] relates to HOP-62.
The subject of assay [2] is IGROV-1.
The subject of assay [3] is M14.
Assay [4] relates to SK-MEL-28.
Assay [5] deals with SK-MEL-2.
The subject of assay [6] is A498.
In assay [7] the test system is SNB-19.
Assay [8] relates to OVCAR-5.
In assay [9] the test system is HL-60.
Assay [10] relates to UACC-257.
The subject of assay [11] is NCI-H226.
Assay [12] concerns SF-295.
For assay [13], the system named is Malme-3M.
Assay [14] relates to COLO 205.
In assay [15] the test system is MOLT-4.
For assay [16], the system named is HOP-92.
For assay [17], the system named is ACHN.
Assay [18] concerns SNB-75.
Assay [19] deals with U-251.
The test system of assay [20] is HCT-116.

On to `COc1ccc2cc1Oc1ccc(cc1)CC1c3c(cc(OC)c4c3Oc3cc5c(cc3O4)CCNC5C2)CCN1C` (configuration not stated), for which the GI50 in assay [1] is 2.2 µM (inactive); in assay [2], 1.87 µM (inactive); in assay [3], 2.58 µM (inactive); in [4], 1.88 µM (inactive); in assay [5], 1.84 µM (inactive); in [6], 2.1 µM (inactive). In addition, the GI50 is 2 µM (inactive) in [7]; 3.6 µM (inactive) in assay [8]; 1.84 µM (inactive) in [9]; 1.67 µM (inactive) in assay [10]; 5.52 µM (inactive) in assay [11]; 1.91 µM (inactive) in assay [12]. For the same molecule, the GI50 in assay [13] was 2.09 µM (inactive); in [14], 1.72 µM (inactive); in [15], 1.46 µM (inactive); in assay [16], 2.45 µM (inactive); in assay [17], 1.88 µM (inactive).
As for `COc1cc(C2S/C(=C/c3ccccc3)C(=O)N2c2ccc(NC(C)=O)cc2)cc(OC)c1OC` (configuration not stated), the GI50 is 3.3 µM (inactive) in assay [18]; 30.4 µM (inactive) in [1]; 19.5 µM (inactive) in [3]; 30.8 µM (inactive) in [4]; 0.71 µM (active) in [5]; 21.4 µM (inactive) in assay [6]. For the same molecule, the GI50 in [7] is 38.1 µM (inactive); in [8] it was 28 µM (inactive); in assay [19], 15.6 µM (inactive); in assay [10], 37.2 µM (inactive); in [12] it was 36.6 µM (inactive); in assay [13], 22 µM (inactive). Also, the GI50 in assay [14] was 15.2 µM (inactive); in assay [15] it was 4.61 µM (inactive); in assay [16] it was 20.2 µM (inactive); in assay [20] it was 12.7 µM (inactive); in assay [17] it was 22.7 µM (inactive).
On to `S=P1(Sc2ccccc2)Oc2ccc3ccccc3c2-c2c(ccc3ccccc23)O1`, for which the GI50 in [18] was > 100 µM (inactive); in [1] it was > 100 µM (inactive); in assay [2] it was > 100 µM (inactive); in [4], > 78.5 µM (inactive); in [5] it was > 100 µM (inactive); in assay [6], > 84.7 µM (inactive). Moreover, the GI50 in assay [7] was > 100 µM (inactive); in assay [8], > 100 µM (inactive); in assay [9], > 77.4 µM (inactive); in assay [19] it was > 95.5 µM (inactive); in [10], > 100 µM (inactive); in [11] it was > 100 µM (inactive). For the same molecule, the GI50 in assay [12] is > 100 µM (inactive); in [13], > 100 µM (inactive); in assay [14], > 100 µM (inactive); in assay [15] it was > 82.6 µM (inactive); in assay [16], > 100 µM (inactive); in assay [20] it was > 100 µM (inactive).
